# In PMC12254416, “The antimethanogenic efficacy and fate of bromoform and its transformation products in rumen fluid” (Scientific Reports, 2025):
# Entries after “also recorded” stand apart in the source; their conditions may differ.
# How the values were obtained:
# [1] = Compound tracing incubation in autoclaved rumen fluid (abiotic control plus inhibitor, AC+); assay type: in vitro ADME, Holstein cattle
# Text: (§1) Animals used in this study were cared for according to the guidelines of William H. Miner Agricultural Research Institute (Chazy, NY) Animal Care and Use Committee. Rumen fluid was collected by cannulation from four healthy, lactating Holstein cattle maintained on the same diet for five weeks with approval from the William H. Miner Agricultural Research Institute (Chazy, NY) Animal Care and Use Committee and in compliance with SOP#106.
# (§2) Donor cow profiles and dietary information can be found in supplemental information (Table S1 and Table S2). Rumen samples were strained through four layers of cheesecloth, placed on ice and shipped overnight to Bigelow Laboratory for Ocean Sciences at weekly intervals for three consecutive weeks. Upon arrival, the four samples were combined under anaerobic conditions. Sub-samples of the rumen fluid blend were flash-frozen in liquid nitrogen and stored at −20 °C for later analysis of initial pH, ammonia (NH3), and volatile fatty acids (VFAs). The rumen fluid blend was kept air-tight, on ice at 4 °C until used for experimental incubations within four days[34],[35].
# (§3) This study utilized an in vitro technique of directly incubating rumen fluid for short-term experiments (< 6 h). The in vitro experiments were performed in accordance with guidelines reviewed in Yáñez-Ruiz et al.[36]. In order to investigate the response to and transformation of methanogenesis inhibitors, experiments included combinations of the following treatment groups: (i) biotic control (BC): live rumen fluid containing no inhibitors, (ii) biotic plus inhibitor (B+): live rumen fluid containing an inhibitor, (iii) abiotic control plus inhibitor (AC+): rumen fluid sterilized by autoclave (121 °C, 15 psi for 1 h) and containing an inhibitor. Prior to the incubation experiments, 80 ml aliquots of blended rumen fluid were added to 120 ml glass serum bottles and sealed with PTFE septa under anaerobic conditions (80% nitrogen, 15% carbon dioxide, 5% hydrogen). Experiments consisted of a series of 15 to 18 bottles of the same batch of refrigerated rumen fluid incubated in parallel. To revive the microbial activity at the start of each experiment, the incubation bottles, including the killed controls, were brought to 40 °C in a recirculating water bath within 15 min. The bottles thermally equilibrated for another 30 min before the experiment was initiated. The experiment was initiated after headspace sampling (T0) and the designated treatment was added. The incubation proceeded for ~ 4–6 h at 40 °C.
# (§4) Two experimental designs were run: i) compound tracing experiments, to investigate the lifetime and transformation of inhibitors; and ii) dose-response experiments, to determine the sensitivity of methanogenesis to inhibitors (Fig. 1). Dose-response experiments included biotic controls (BC), and a series of nine biotic plus inhibitor treatments (B+) across a range of concentrations (0 to 25 µM) containing the specific inhibitor (bromoform (Sigma-Aldrich 99%), dibromomethane (Sigma-Aldrich 99%), bromomethane (Supelco TraceCERT®), or Asparagopsis taxiformis. The A. taxiformis was collected fresh from a marine site in the subtropical Atlantic (27° 59’ 19”, −15° 22’ 12”) and stored frozen at −20 °C. The sample material contained 0.33 ± 0.02 mg bromoform g^−1 dry weight.
# (§5) Tracing experiment treatments included biotic controls (BC), biotic plus inhibitors (B+), and abiotic plus inhibitors (AC+) of a single concentration of the target compound, each in triplicate. Target compounds bromoform, dibromomethane, and bromomethane, were injected through the septa as solutions in methanol (VWR 99.9%). The corresponding levels of methanol, which ranged from 30 to 950 µl, were added to the control treatments, depending on the desired inhibitor concentration. The A. taxiformis was cut into fine pieces, homogenized, pre-weighed into PTFE capsules and placed in the incubation bottles prior to incubation. […]
# [2] = parameters: method as in earlier work; settings: incubation times up to 72 h; ref 33 Romero et al.; cited from earlier work
# [3] = Loss to headspace volume estimated from Henry's Law solubility constants; assay type: physicochemical; settings: based on Henry's Law solubility constants, during the incubations
# Method: Based on the Henry’s Law solubility constants for bromoform and dibromomethane, loss to the headspace volume during the incubations would have amounted to < 5% of the dissolved pool of either compound and therefore, had minimal influence on estimated loss and turnover rates. In contrast, approximately 40% of any bromomethane produced during the tracing experiments may have been lost to the headspace gas sampling and may have contributed to the lack of evidence of bromomethane production.
# [4] = system: CH4 production in rumen fluid; assay: CH4 production in in vitro rumen fluid incubations (dose-response and single-dose inhibition); assay type: cell-based, Holstein cattle; settings: for Concentration range of the dose response: CH4 production vs inhibitor concentration, for bromomethane the extent of the range; for Concentration at which the sigmoidal concentration-inhibition relationship occurred: abstract; for CH4 production relative to the no treatment control: concentrations > 2 µmol l^−1; for maximum value of CH4 production (dose-response fit) / minimum value of CH4 production (dose-response fit): cumulative CH4 over 240 min, 80 ml rumen fluid; for maximum value of CH4 production (dose-response fit) / minimum value of CH4 production (dose-response fit) / EC50 / coefficient b of log-logistic dose-response curve: ± standard error; for EC50: cumulative CH4 over 240 min vs initial concentration, read-out: ec-50, 50 % inhibition of CH4 production; for coefficient b of log-logistic dose-response curve: cumulative CH4 production over 240 min vs initial inhibitor concentration; for Time after addition to reduced CH4 production: bromoform addition, vs control
# Text: as §1, §2, §3, §4, §5
# [5] = Compound tracing incubation in live rumen fluid (biotic plus inhibitor, B+); assay type: in vitro ADME, Holstein cattle; settings: for Rate constant, biological loss: difference between total loss (B+) and abiotic loss (AC+); for ½ life, biological loss: from difference of B+ and AC+ rates; for ½ life, loss (total, biotic incubation) / Rate constant, loss (total, biotic incubation): live rumen fluid B+, 40 °C; for Rate constant, loss (total, biotic incubation): compound added alone
# Text: as §1, §2, §3, §4, §5
# [6] = bromoform-amended autoclaved rumen fluid (Exp1)
# [7] = bromoform-amended live rumen fluid (Exp1)
structure (smiles),measurement,setting,value
BrCBr [dibromomethane],"Dibromomethane as % of the maximum bromoform concentrations, abiotic",[1]; AC + A.tax (Exp 4),1.3%
same,"Dibromomethane at the end of the incubation after A. taxiformis addition, abiotic",[1]; AC + A.tax (Exp 4),0.030 ± 0.001 µmol/L
same,"½ life, abiotic loss",[1]; autoclaved rumen fluid AC+,10200 min
same,Dibromomethane abiotic production rate,[1]; [6],0.0014 ± 0.0001 µmol/L/min
same,"Yield of dibromomethane, % of the initial bromoform added, abiotic",[1]; [6],3.4%
same,"Yield of dibromomethane, % of the initial bromoform added, abiotic","[1]; bromoform-amended autoclaved rumen fluid (Exp1), listed as Dibromomethane",3.4%
same,Dibromomethane produced as proportion of the degraded bromoform,[2],20 to 40%
same,"Loss to the headspace volume, share of the dissolved pool / of compound produced",[3],< 5%
same,Concentration range of the dose response,[4],1 to 2 µmol/L
same,Concentration at which the sigmoidal concentration-inhibition relationship occurred,[4],1 to 2 µM
same,CH4 production relative to the no treatment control,[4],< 20%
same,maximum value of CH4 production (dose-response fit),[4],763 ± 16 µmol
same,minimum value of CH4 production (dose-response fit),[4],146 ± 8 µmol
same,EC50,[4],1.36 ± 0.03 µM
same,coefficient b of log-logistic dose-response curve,[4],7.46 ± 0.92
same,"Peak dibromomethane as % of the highest observed bromoform, biotic",[5]; B + A.tax (Exp 4),22.0%
same,"Peak level of dibromomethane after A. taxiformis addition, biotic",[5]; B + A.tax (Exp 4),0.076 ± 0.006 µmol/L
same,Dibromomethane production rate,[5]; [7],0.0353 ± 0.0024 µmol/L/min
same,"Yield of dibromomethane, % of the initial bromoform added",[5]; [7],22.1%
same,Biotic loss slower than the loss of bromoform,"[5]; dibromomethane vs bromoform, biotic",~30 fold
same,"Rate constant, biological loss",[5],-0.826 ± 0.113 x 10^-3min^-1
same,"½ life, biological loss",[5],839 min
same,"½ life, loss (total, biotic incubation)",[5],775 min
same,"Rate constant, loss (total, biotic incubation)",[5],-0.894 ± 0.091 x 10^-3min^-1
BrC(Br)Br [bromoform],"½ life, abiotic loss",[1]; autoclaved rumen fluid AC+,102 min
same,"Rate constant, abiotic loss","[1]; autoclaved rumen fluid AC+, 40 °C",-6.8 ± 0.3 x 10^-3min^-1
same,"Loss to the headspace volume, share of the dissolved pool / of compound produced",[3],< 5%
same,Inhibition threshold for CH4 production,[4],~ 1 µmol l^−1
same,Concentration range of the dose response,[4],1 to 2 µmol/L
same,Concentration at which the sigmoidal concentration-inhibition relationship occurred,[4],1 to 2 µM
same,CH4 inhibition vs biotic control,"[4]; bromoform 3 µmol l^−1, after 260 min (Exp 4)",78%
same,Time after addition to reduced CH4 production,[4],< 60 min
same,Time after addition to reduced CH4 production,[4]; listed as CHBr3,≤ 60 min
same,CH4 production relative to the no treatment control,[4],< 20%
same,maximum value of CH4 production (dose-response fit),[4],681 ± 14 µmol
same,minimum value of CH4 production (dose-response fit),[4],98 ± 16 µmol
same,EC50,[4],1.37 ± 0.03 µM
same,coefficient b of log-logistic dose-response curve,[4],5.98 ± 0.76
same,Inhibition of CH4 production,"[4]; total bromoform addition of 3 µmol l^−1, ~300 min (Exp 3)",> 75%
same,Loss rate in live rumen fluid relative to autoclaved control,[5]; B+ vs AC+,more than 3 fold
same,"Rate constant, biological loss",[5],-19.6 ± 1.2 x 10^-3min^-1
same,"½ life, biological loss",[5],35 min
same,"½ life, loss (total, biotic incubation)",[5],~ 26 min
same,"Rate constant, loss (total, biotic incubation)",[5],-26.4 ± 1.3 x 10^-3min^-1
same,"½ life, loss (total, biotic incubation)",[5]; listed as Bromoform,26 min
CBr [bromomethane],"Loss to the headspace volume, share of the dissolved pool / of compound produced",[3],approximately 40%
same,Concentration required to achieve a maximal inhibitory effect,[4]; CH4 production dose response (Exp7),> 20 µmol/L
same,maximum value of CH4 production (dose-response fit),[4],616 ± 6 µmol
same,minimum value of CH4 production (dose-response fit),[4],182 ± 7 µmol
same,EC50,[4],5.34 ± 0.14 µM
same,coefficient b of log-logistic dose-response curve,[4],3.09 ± 0.24
same,EC50 relative to bromoform and dibromomethane,[4]; higher,~5 fold
same,Production of bromomethane in incubations,"[5]; tracing incubations, limit of detection 8 nmol l^−1",no bromomethane was detected; also recorded: not detected; also recorded: no detectable bromomethane production
